Laboratory results taken from EP1067137B1, “Granules of alpha-L-aspartyl-L-phenylalnine methyl ester” (Ajinomoto Co., Inc., priority 1991, dated 1992).
Peptide text beside a SMILES is read from it.

Columns and labels:
[1] = Dissolution time of α-APM granules in water; type: physicochemical; details: 8 g of sample in 2 liters of water, 20 °C, 350 rpm
Experimental: The dissolution time of the α-APM granules thus obtained was measured by the method mentioned below, and the results obtained are shown in Table 1.
First, 2 liters of water were previously put in a 3-liter beaker and stirred with a magnetic stirrer.
The size of the stirrer to be used for the stirring was 70 mm x 15 mm φ and the rotation number was set to be 350 rpm with Whatman Dataplate 440. The temperature of the water was kept to be 20 ° C by the use of a hot plate. 8 g of a sample was put into the water under the determined condition, whereupon the time needed for completely dissolving it in the water was measured to be the dissolution time of the sample.

[2] = relative to sucrose (cane sugar); cited from earlier work
[3] = Original Powder before Granulation
[4] = granules, Grain Size 100 to 150 µm
[5] = granules, Grain Size 150 to 180 µm
[6] = granules, Grain Size 180 to 300 µm
[7] = granules, Grain Size 300 to 500 µm
[8] = granules, Grain Size 500 to 850 µm
[9] = granules, Grain Size 850 to 1400 µm

Compound | Dissolution Time [1, 3] [min] | Dissolution Time [1, 4] [min] | Dissolution Time [1, 5] [min] | Dissolution Time [1, 6] [min] | Dissolution Time [1, 7] [min] | Dissolution Time [1, 8] [min] | Dissolution Time [1, 9] [min] | sweetness [2]
COC(=O)[C@H](Cc1ccccc1)NC(=O)[C@@H](N)CC(=O)O [sample C, α-L-aspartyl-L-phenylalanine methyl ester] (H-Asp-Phe-OMe) | 60 | 36 | 20 | 12 | 19 | 27 | 38 | –
COC(=O)[C@H](Cc1ccccc1)NC(=O)[C@@H](N)CC(=O)O [sample A, α-L-aspartyl-L-phenylalanine methyl ester] (H-Asp-Phe-OMe) | 30 | 15 | 8 | 11 | 18 | 25 | 38 | –
COC(=O)[C@H](Cc1ccccc1)NC(=O)[C@@H](N)CC(=O)O [α-APM, α-L-aspartyl-L-phenylalanine methyl ester] (H-Asp-Phe-OMe) | – | – | – | – | – | – | – | about 200 times that of sucrose
COC(=O)[C@H](Cc1ccccc1)NC(=O)[C@@H](N)CC(=O)O [sample B, α-L-aspartyl-L-phenylalanine methyl ester] (H-Asp-Phe-OMe) | 15 | 10 | 7 | 9 | 17 | 24 | 35 | –
